The results in this text go back to PubChem BioAssay AID652113 (The Scripps Research Institute Molecular Screening Center, 2013).

This data set relates to PAMPA artificial membrane permeability, LC-MS, 5 h. The experiment in a line: PubChem AID 652113. Conditions: hits give high values.

As to `COC(=O)c1cc(Br)cnc1N1CCC(NC2CCCCC2)C(O)C1` (stereo unspecified), the permeability is 16.5 ×10⁻⁶ cm/s.
